This note sets out measurements from patent publication US11155560B2, “Substituted pyrazolo[1,5-a]pyrimidines for modulating CDK9 activity” (Kronos Bio, Inc., priority 2018, dated 2021).

For the experiment, the target named is CDK9/cyclin T1 (Homo sapiens, UniProt P50750). Nature of the experiment: CDK9/cyclin T1 inhibition, radiometric assay. Format: biochemical. Particulars: read-out: CDK9/cyclin T1 Potency Grade. The method, then:
Exemplary compounds of the invention (1-34) were tested for inhibition of CDK9/cyclin T1. […] Reactions were carried out at 10 μM ATP. Data was normalized to positive and negative controls and curve fits were executed with GraphPad software and were performed where the enzyme activities at the highest concentration of compounds were less than 65%.

Read-outs that look alike come from different tables or passages of the source.

Chain of CDK9/cyclin T1 (P50750 whole entry): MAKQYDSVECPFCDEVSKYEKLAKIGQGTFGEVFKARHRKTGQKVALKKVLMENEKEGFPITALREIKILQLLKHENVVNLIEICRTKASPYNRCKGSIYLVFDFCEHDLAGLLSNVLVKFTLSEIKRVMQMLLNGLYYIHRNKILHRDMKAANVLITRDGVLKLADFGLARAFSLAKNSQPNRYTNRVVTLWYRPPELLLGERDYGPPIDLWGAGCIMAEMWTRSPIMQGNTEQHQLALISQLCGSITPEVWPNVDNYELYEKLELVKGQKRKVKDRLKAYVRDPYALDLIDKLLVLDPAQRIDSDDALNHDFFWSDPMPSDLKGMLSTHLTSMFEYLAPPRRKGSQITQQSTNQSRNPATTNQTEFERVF
Chain of CDK9/cyclin T1 (O60563 whole entry partner): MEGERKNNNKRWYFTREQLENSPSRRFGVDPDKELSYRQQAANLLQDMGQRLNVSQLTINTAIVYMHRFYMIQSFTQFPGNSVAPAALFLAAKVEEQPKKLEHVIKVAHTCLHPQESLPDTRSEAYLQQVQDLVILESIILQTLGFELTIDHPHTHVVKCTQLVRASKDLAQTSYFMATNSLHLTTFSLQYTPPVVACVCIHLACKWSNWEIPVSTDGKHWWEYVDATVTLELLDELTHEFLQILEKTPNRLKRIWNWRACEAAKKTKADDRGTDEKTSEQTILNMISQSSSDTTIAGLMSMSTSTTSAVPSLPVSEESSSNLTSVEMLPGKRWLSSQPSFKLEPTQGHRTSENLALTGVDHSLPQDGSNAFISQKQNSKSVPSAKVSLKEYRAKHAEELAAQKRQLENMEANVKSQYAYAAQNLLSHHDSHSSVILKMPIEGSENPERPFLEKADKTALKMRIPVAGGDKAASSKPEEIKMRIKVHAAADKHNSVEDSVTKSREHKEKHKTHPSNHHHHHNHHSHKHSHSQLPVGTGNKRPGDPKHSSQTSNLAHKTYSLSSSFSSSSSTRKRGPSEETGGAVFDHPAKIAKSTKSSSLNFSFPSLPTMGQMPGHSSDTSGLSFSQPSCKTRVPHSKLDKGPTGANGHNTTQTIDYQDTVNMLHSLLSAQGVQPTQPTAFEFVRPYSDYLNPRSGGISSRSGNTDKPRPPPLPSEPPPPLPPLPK

Regarding `N[C@H]1CC[C@H](Nc2cc(C3CCCC3)nc3ccnn23)CC1` [Compound 8, [4-[(5-cyclopentylpyrazolo[1,5-a]pyrimidin-4-ium-7-yl)amino]cyclohexyl]ammonium dichloride], the IC50 was 1 to 500 nM.

For `N[C@H]1CC[C@H](Nc2cc(C3CCCC3)nc3ccnn23)C1` [Compound 9, [(1S,3S)-3-[(5-cyclopentylpyrazolo[1,5-a]pyrimidin-4-ium-7-yl)amino]cyclopentyl]ammonium dichloride], the IC50 lay in the range of 1 to 500 nM.

Regarding `N[C@H]1CC[C@@H](Nc2cc(C3CCCC3)nc3ccnn23)C1` [Compound 15, (1 S,3R)—N3-(5-cyclopentylpyrazolo[1,5-a]pyrimidin-7-yl)cyclopentane-1,3-diamine], the IC50 fell in the range of 1 to 500 nM.

For the molecule `Cc1cc(NC2CCCC2)n2nccc2n1` [Compound 1, N-cyclopentyl-5-methyl-pyrazolo[1,5-a]pyrimidin-7-amine], the IC50 was > 1000 nM.

In the case of `c1cc2nc(C3CCCC3)cc(NC3CCCC3)n2n1` [Compound 5, N,5-dicyclopentylpyrazolo[1,5-a]pyrimidin-7-amine], the IC50 was in the range of 1 to 500 nM.

For `CCC(C)c1cc(NC2CCCC2)n2nccc2n1` (stereo not shown) [Compound 3, N-cyclopentyl-5-sec-butyl-pyrazolo[1,5-a]pyrimidin-7-amine], the IC50 was 1 to 500 nM.

As to `Cc1cc(N[C@H]2CC[C@H](N)C2)n2nccc2n1` [Compound 24, (1S,3S)—N3-(5-methylpyrazolo[1,5-a]pyrimidin-7-yl)cyclopentane-1,3-diamine], the IC50 lay within 501 to 1000 nM.

With `N[C@H]1C[C@H](Nc2cc(C3CCCC3)nc3ccnn23)C1` [Compound 20, N1-(5-cyclopentylpyrazolo[1,5-a]pyrimidin-7-yl)cyclobutane-1,3-diamine], the IC50 fell in the range of 1 to 500 nM.

As to `CC(=O)Nc1cc(N[C@@H]2CC[C@@H](N)C2)n2nccc2n1` [Compound 34, [(1R,3R)-3-[(5-acetamidopyrazolo[1,5-a]pyrimidin-7-yl)amino]cyclopentyl]ammonium; 2,2,2-trifluoroacetate], the IC50 was > 1000 nM.

For the molecule `CC(C)c1cc(N[C@@H]2CCOC2)n2nccc2n1` [Compound 30, 5-isopropyl-N-[(3R)-tetrahydrofuran-3-yl]pyrazolo[1,5-a]pyrimidin-7-amine], the IC50 is > 1000 nM.

Consider `Cc1cc(N[C@@H]2CC[C@H](N)C2)n2nccc2n1` [Compound 10, [(1S,3R)-3-[(5-methylpyrazolo[1,5-a]pyrimidin-4-ium-7-yl)amino]cyclopentyl]ammonium dichloride], for which the IC50 is > 1000 nM.

In the case of `N[C@@H]1CC[C@@H](Nc2cc(C3CC3)nc3ccnn23)C1` [Compound 32, [(1R,3R)-3-[(5-cycloproylpyrazolo[1,5-a]pyrimidin-7-yl)amino]cyclopentyl]ammonium; 2,2,2-trifluoroacetate], the IC50 (radiometric assay, reaction time 60 minutes, 10 μM ATP, 10-dose IC50, compounds 1-34 and control Staurosporine) was 1 to 500 nM.

As to `CCC(C)c1cc(N[C@H]2CC[C@H](N)CC2)n2nccc2n1` (stereo partly shown) [Compound 7, [4-[(5-sec-butylpyrazolo[1,5-a]pyrimidin-4-ium-7-yl)amino]cyclohexyl]ammonium dichloride], the IC50 fell in the range of 1 to 500 nM.

Take `CCc1cc(N[C@@H]2CC[C@@H](N)C2)n2nccc2n1` [Compound 25, (1R,3R)—N3-(5-ethylpyrazolo[1,5-a]pyrimidin-7-yl)cyclopentane-1,3-diamine]: the IC50 fell in the range of 501 to 1000 nM.

Regarding `Cc1cc(N[C@H]2C[C@H](N)C2)n2nccc2n1` [Compound 11, [3-[(5-methylpyrazolo[1,5-a]pyrimidin-4-ium-7-yl)amino]cyclobutyl]ammonium dichloride], the IC50 was in the range of 501 to 1000 nM.

Consider `CCc1cc(N[C@H]2CC[C@H](N)C2)n2nccc2n1` [Compound 28, (1S,3S)-N3-(5-ethylpyrazolo[1,5-a]pyrimidin-7-yl)cyclopentane-1,3-diamine], for which the IC50 was in the range of 1 to 500 nM.
